Measured values: US12336977B2, “Nitenin analogue compounds and their use in the treatment of chronic and acute pain” (SEA4US-BIOTECNOLOGIA E RECURSOS MARINHOS, LDA., priority 2019, dated 2025)

Tests used:
hKv1.1 = molecular target: T1, hKv1.1 (Homo sapiens, UniProt Q09470); assay: voltage-clamp of K+ currents in CHO-K1 cells expressing hKv1.1; assay type: cell-based
T1 construct: expressed in transfected cells; host or cells: CHO-K1
Source text: (§1) As measure of Ifast, peak current was used, whereas, as a measure of Islow, the current value was obtained at the end of the command pulse (see FIG. 1). Values are expressed as mean±S.E.M. For Islow, a dual phase relationship can be observed. […] Kv1.3 channel is the most sensitive channel (around 6-fold more sensitive in comparison to the “next most sensitive one”, the Kv1.2) Kv1.2, Kv1.1 and Kv1.6 show similar, intermediate sensitivities to nitenin. In opposition, Kv1.4 is the less sensitive (˜31 times less sensitive).
(§2) Additionally, drug sensitivity to different voltage-activated channels was assessed by studying the drug effect on currents recorded from chinese hamster ovary (CHO) cells stably transfected with different human Kv channel subunits (Kv1.1, Kv1.2, Kv1.3, Kv1.4 and Kv1.6).
(§3) The higher sensitivity of nitenin to Islow (rather than Ifast) and the nature of the nitenin sensitive current (see nitenin sensitive current in FIG. 1.b) urged to understand which K^+ channel(s) do underline Islow. By considering which Kv channel subunits are known to be expressed in DRG, and the biophysical nature of the nitenin-sensitive current, nitenin was tested on whole-cell currents recorded from CHO cells expressing hKv1.1, hKv1.2, hKv1.3, hKv1.4 and hKv1.6. […] Current inhibition was measured at the end of the 1000 ms pulse.

hKv1.6 = molecular target: T2, hKv1.6 (Homo sapiens, UniProt P17658); assay: voltage-clamp of K+ currents in CHO-K1 cells expressing hKv1.6; assay type: cell-based
T2 construct: expressed in transfected cells; host or cells: CHO-K1
T2 sequence (P17658 whole entry): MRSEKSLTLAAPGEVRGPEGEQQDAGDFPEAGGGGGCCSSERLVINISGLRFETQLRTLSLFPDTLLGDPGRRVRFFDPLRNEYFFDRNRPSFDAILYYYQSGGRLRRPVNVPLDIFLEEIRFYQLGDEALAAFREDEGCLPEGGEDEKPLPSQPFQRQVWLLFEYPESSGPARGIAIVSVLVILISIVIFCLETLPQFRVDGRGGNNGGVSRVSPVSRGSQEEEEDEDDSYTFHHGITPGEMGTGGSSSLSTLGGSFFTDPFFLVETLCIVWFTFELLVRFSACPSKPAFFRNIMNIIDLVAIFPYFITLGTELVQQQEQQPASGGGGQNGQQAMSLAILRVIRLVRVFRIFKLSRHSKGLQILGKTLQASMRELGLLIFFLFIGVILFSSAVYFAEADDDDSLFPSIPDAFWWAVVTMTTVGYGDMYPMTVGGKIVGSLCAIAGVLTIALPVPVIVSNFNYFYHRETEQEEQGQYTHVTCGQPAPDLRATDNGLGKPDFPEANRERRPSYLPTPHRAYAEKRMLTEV
Source text: as §1, §2, §3

[1] = test system: K+ currents of small diameter dorsal-root ganglion neuron; assay: voltage dependence of steady state of inactivation of K+ currents in sdDRGn; assay type: cell-based, rat
Source text: (§4) One can observe a shift to hyperpolarized values during the nitenin treatment. The relationships were better fit with the sum of two Boltzmann functions, showing that in both conditions there are two components: one more hyperpolarized component (component 1) and one other more depolarized component (component 2).
as §4, with “treatment with the compound of formula VI.” for “nitenin treatment.”
as §4, with “treatment with the compound of formula VII.” for “nitenin treatment.”
as §4, with “treatment with the compound of formula VIII.” for “nitenin treatment.”
(§5) For the electrophysiological recordings of the ex vivo material, voltage-clamp recordings were performed on neurons isolated from rat DRGs (and TGs). Recordings were performed from the soma that often contained the proximal fraction of axon, 1 hour after the end of the cell isolation process (includes enzymatic and mechanical treatment).

[2] = test system: K+ currents of small diameter trigeminal ganglion neurons (sdTGNs); assay: whole-cell voltage-clamp of K+ currents in sdTGNs; assay type: cell-based, rat
Procedure: The nitenin analogue compounds of the present application were first obtained from the marine sponge Spongia agaracina captured in Sagres, Portugal, but have also been chemically synthesized.
as §5

[3] = test system: CFA rats (knee administrations of Complete Freund's Adjuvant on Wistar rats); assay: inflammatory pain rat model CFA, von Frey filaments; assay type: in vivo
Procedure: […]
(§6) For efficacy studies, nociception was assessed in all animals from all pain models by regular behavioural monitoring, by quantifying the sensitivity to mechanical stimuli with Von Frey filaments, and consequently reflecting hyperalgesia when hypersensitive. […] Intraperitoneal administration was tested in CFA rats (23 days after CFA injection), with 10 times the nitenin quantity administered by I.V. injections. […] Oral administration of nitenin through stomach gavages (endogastric), with 100 times the quantity administered by I.V. injections, was tested in CCI rats (31 days after surgery). […]

STZ rats = assay: diabetic neuropathic pain rat model STZ, von Frey filaments; assay type: in vivo; conditions: I.V. 1 μg/mL of blood; 60 days after STZ
Procedure: […]
as §6

CIPN rats (paclitaxel) = assay: chemotherapy-induced peripheral neuropathy rat model CIPN, von Frey filaments; assay type: in vivo; conditions: I.V.; 42 days after paclitaxel
Procedure: […]
as §6

T1 sequence (Q09470 whole entry): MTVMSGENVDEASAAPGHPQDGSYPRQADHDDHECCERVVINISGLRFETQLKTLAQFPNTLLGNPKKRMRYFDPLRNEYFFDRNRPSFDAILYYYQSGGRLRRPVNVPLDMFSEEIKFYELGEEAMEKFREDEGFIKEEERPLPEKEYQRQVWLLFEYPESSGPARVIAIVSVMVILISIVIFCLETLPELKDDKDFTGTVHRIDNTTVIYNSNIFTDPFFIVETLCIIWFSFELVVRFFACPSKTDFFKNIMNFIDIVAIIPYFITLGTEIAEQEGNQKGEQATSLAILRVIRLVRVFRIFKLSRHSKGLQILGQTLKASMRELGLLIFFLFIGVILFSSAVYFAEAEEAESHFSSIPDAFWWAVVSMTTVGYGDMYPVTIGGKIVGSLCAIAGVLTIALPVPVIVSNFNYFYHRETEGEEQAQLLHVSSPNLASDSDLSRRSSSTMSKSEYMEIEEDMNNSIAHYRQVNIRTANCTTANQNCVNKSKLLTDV

C/C(=C\C1C/C(=C/CCc2ccoc2)C(=O)O1)CCCc1ccoc1 (stereo not shown) [nitenin]
lower sensitivity of hKv1.1 relative to Kv1.3 (hKv1.1): ~6 × | lower sensitivity of hKv1.6 relative to Kv1.3 (hKv1.6): ~6 × | effect on I-V curves of the voltage dependence of inactivation [1]: shifts to more hyperpolarised potentials | Vh2 (voltage of half maximum current, component 2) of steady state inactivation ([1]; nitenin 0.1 μg/ml, 0.29 μM, neuron from injured side of CCI rat 28 days after surgery, control −26.3): −47.0 mV | Vh1 (voltage of half maximum current, component 1) of steady state inactivation ([1]; nitenin 0.1 μg/ml, 0.29 μM, neuron from injured side of CCI rat 28 days after surgery, control −73.3): −95.3 mV | effect on K+ currents from sdTGNs [2]: inhibited the K^+ currents | sensitivity to mechanical stimuli (von Frey) ([3]; I.V. 1 μg/mL of blood, 3, 18 and 23 days after CFA): noticeable decrease of sensitivity to mechanical stimuli | mitigation effect of pain (score values) ([3]; intraperitoneal, 10 times the I.V. quantity, 23 days after CFA injection): clear mitigation effect of pain with score values reaching control levels | mechanical sensitivity in the hypersensitive paws (STZ rats): decrease of mechanical sensitivity | sensitivity to mechanical stimuli, both paws (CIPN rats (paclitaxel)): intense decrease of sensitivity to mechanical stimuli
